# From US11344574B2, “Fluoro substituted porphyrin compounds, pharmaceutical compositions comprising the same, and methods of preparing and using the same” (Duke University, priority 2017, dated 2022)
# “Also recorded” adds a separate entry of the source.
# Tests used:
# [1] = Metal-centered reduction potential for the Mn^IIIP/Mn^IIP redox couple; assay type: physicochemical; settings: vs normal hydrogen electrode
# [2] = test system: radiation-induced erectile dysfunction; experiment: Radioprotection of erectile function after 20 Gy radiation; assay type: in vivo; settings: rats, 0.5 mg/kg sc, single 20 Gy RT, with and without ascorbate, 9 weeks
# Procedure: Mn4 administration started at 24 hours before RT. Mn4 was given at 0.5 mg/kg sc for the first four weeks daily (except for weekends) and then twice weekly for next five weeks. Single 20 Gy RT dose was given stereotactically.
# 10 rats per group were studied. MnF3Pen was given at 0.5 mg/kg sc for the first four weeks daily except for weekends, and then twice weekly for the next five weeks.
# Single radiation dose of 20 Gy was delivered stereotactically, using image guided small animal radiator.
# It was used at 0.1 mg/kg (at week 6 and 9).
# Based on earlier studies, erectile dysfunction has been assessed at 9 weeks. […] Mn4 administration started at 24 hours before RT. Mn4 was given at 0.5 mg/kg sc for the first 4 weeks daily except for weekends, and then twice weekly for the next 5 weeks. Single 20 Gy RT dose was given.
# [3] = Toxicity in a rat and mouse study; assay type: in vivo
# From the text: Also, such differences could not have been anticipated based just on the aqueous chemistry and diverse physical properties of those compounds. Such effects likely result from the differences in the polarities of those molecules: strongly polar character of 12 fluorine atoms relative to 4 polar oxygen atoms. […] Despite being equally lipophilic, a higher efficacy of MnTF3Pen-2-PyP^5+ than MnTnBuOE-2-PyP^5+ was observed.
# [4] = SOD mimicking: catalysis of O2.^− dismutation; assay type: biochemical; settings: ability to mimic SOD enzyme in catalysis of O2.^− dismutation
# [5] = Lipophilicity by TLC retention factor Rf on silica; assay type: physicochemical; settings: vs two non-fluorinated lipophilic analogs
# From the text: Fluorination enhances the lipophilicity of MnPs as described with TLC retention factor, Rf (compound path/solvent path). Rf was obtained on silica gel plates using acetonitrile:KNO3(sat):water=8:1:1 as previously described (Tovmasyan A, Carballal S, Ghazaryan R, Melikyan L, Weitner T, Maia C G, Reboucas J S, Radi R, Spasojevic I, Benov L, and Batinic-Haberle I. Rational Design of Superoxide Dismutase (SOD) Mimics: The Evaluation of the Therapeutic Potential of New Cationic Mn Porphyrins with Linear and Cyclic Substituents. Inorg Chem 53: 11467-83, 2014).
# In some embodiments, the fluoro-substituted porphyrins of the present invention may have enhanced lipophilicity (e.g., compared to non-fluoro-substituted porphyrins). Lipophilicity can be measured via thin layer chromatography. The relative lipophilicity of a group of compounds can be determined in a given solvent system. […] The fluoro-substituted porphyrins of the present invention suitably have a lipophilicity of greater than zero in a solvent system of acetonitrile:water:KNO3 (saturated aqueous) (8:1:1). Alternatively, the lipophilicity may be quantified by the standard octanol/water partition coefficient (log P). In some embodiments, the lipophilic fluoro-substituted porphyrins may have a greater bioavailability than their hydrophilic analogs. […]
# 4T1 breast tumor = experiment: Mouse flank 4T1 tumor radio- and chemosensitization study, MnP 0.2 mg/kg; assay type: in vivo; settings: triple combination MnP 0.2 mg/kg sc + ascorbate + radiation, listed as MnTF3Pen-2-PyP^5+
# Procedure: Female Balb/c mice were injected subcutaneously (on flank) with 1 million cells. […] 24 hours after the first injection of Mn porphyrins the radiation started at 2.5 Gy per day for 3 days. Fractionated radiation regime was used to better reflect the clinical scenario. […] Injection of drugs was continued daily. Once the study was completed when mice reached on average 2000 mm^3 volume, the mice were sacrificed, and tumors, normal muscle from opposite leg and liver were collected and levels of Mn porphyrins analyzed by LCMS/MS.
# [6] = Ability of MnP to catalyze ascorbate oxidation, initial rates assessed spectrally; settings: initial rate of ascorbate oxidation; 10 μM MnP, 1 mM Asc, aerobic, 25 °C, pH 7.8
# [7] = Pharmacokinetic studies in plasma and organs, 1 mg/kg; assay type: in vivo, rats; settings: for Cmax: male, rat
# Procedure: Whenever possible, the PK profiles of MnF3Pen were compared to MnTnBuOE-2-PyP^5+ (MnBuOE, Mn2), the drug presently in two clinical trials.
# 3 rats were used per time point. The following time points were tested: 30 min, 1, 2, 6, 24 hours, and 3 and 7 days. The tissues were taken after the rats were perfused with PBS to eliminate blood content of organs and, therefore its interference with blood content of organs. At 6 h, three additional rats were used to assess the effect of perfusion. In addition to plasma, the following organs were analyzed: liver, kidney, prostate, penis, testis, rectum, bladder, and brain. We have collected liver due to Mn porphyrins accumulating at the highest level in this organ; it then serves as a depot to maintain levels of drug in plasma and other organs. We also took the brain because toxicity of Mn porphyrins has been seen at that level present in the brain. Whenever possible the comparison with MnBuOE has been done. […] MnBuOE was used as internal standard.
# [8] = Maximal tolerable dose (MTD) studies; assay type: in vivo, rats; settings: subcutaneous
# Procedure: The dose we identified as entirely safe was then given for 2 weeks. […] A dose above 0.5 mg/kg of MnTF3Pen-2-PyP^5+ seems to impose some toxicity expressed as hypotonia and reluctance to ambulate. We have thus decided to continue with 0.5 mg/kg which appears as safe non-toxic MTD dose for multiple dosing.
# prostate tissue = experiment: Radioprotection of prostate tissue, histopathology (H&E); settings: for radioprotection of prostate tissue: rats, 0.5 mg/kg sc, single 20 Gy RT, 0.5 mg/kg
# Procedure: Tissue was stained with H&E.
# Mn4 administration started at 24 hours before RT. Mn4 was given at 0.5 mg/kg sc for the first 4 weeks daily except for weekends, and then twice weekly for the next 5 weeks. Single 20 Gy RT dose was given.
# The tissues were preserved, half of them in formalin and another half snap-frozen for different analyses. Prostate is the only tissue directly radiated and the penile function was known to suffer radiation damage.
# wild strain E. coli = experiment: Toxicity by aerobic growth of wild strain E. coli; assay type: cell-based; settings: vs MnTnHex-2-PyP^5+ and MnTnBuOE-2-PyP^5+
# Procedure: Herein we explored the member of a new class of Mn porphyrin-based therapeutics, MnTF3Pen-2-PyP^5+ (MnTF3Pen, Mn4) (FIG. 1). We have maintained major structural properties that support the redox-activity of MnPs, yet modified peripheral substituents by introducing polar fluorine atoms. […] The properties of Mn porphyrins (given in arbitrary units) which cumulatively define their therapeutic index: SOD-like activities, lipophilicities and toxicities. […] Toxicities are evaluated based on the aerobic growth of wild strain E. coli—a simple but accurate assay used for over 2 decades to identify the compounds with clinical potential.
# [9] = Brain accumulation of MnPs with different administration routes; assay type: in vivo; settings: route-dependent
# From the text: MnF3Pen accumulates in the brain at levels which are (route-dependently) up to 50% lower than those of MnBuOE due to its more polar fluorine atoms.
compound,measurement,setting,value
"FC(F)(F)CCCC[n+]1ccccc1C1=C2C=CC3=[N+]2[Mn]24[n]5c1ccc5C(c1cccc[n+]1CCCCC(F)(F)F)=C1C=CC(=[N+]12)C(c1cccc[n+]1CCCCC(F)(F)F)=c1ccc([n]14)=C3c1cccc[n+]1CCCCC(F)(F)F [Mn4, 5,10,15,20-tetra(Mn(III) 5′,5′,5′-trifluoropentylpyridinium-2-yl)porphinato pentachloride]","E1/2, mV vs NHE",[1],+288 mV
same,prevention of radiation-induced erectile dysfunction,[2],fully prevented radiation-induced erectile dysfunction
same,toxicity compared with MnTnBuOE-2-PyP^5+,[3],less toxicity
same,log kcat (O2−^•),[4],7.48
same,lipophilicity (in words),[5],more lipophilic
same,tumor growth inhibition,4T1 breast tumor,larger tumor growth inhibition; also recorded: Strong tumor suppression
same,v0(Asc oxid),[6],297 nM/s
same,levels in the tissues of interest,[7]; 1 mg/kg,higher than 100 nM
same,tolerability,[7]; 1 mg/kg,well tolerated
same,accumulation in liver,"[7]; 1 mg/kg, vs MnBuOE",lower accumulation in liver
same,plasma half-life,"[7]; 1 mg/kg, vs MnBuOE",longer plasma half-life
same,levels in all tissues of interest,[7]; FIG. 11,above 0.1 μM
same,"highest levels, liver","[7]; liver, FIG. 11",about 1 μM
same,Cmax,"[7]; bladder, 1 mg/kg",450 nM
same,Cmax,"[7]; penis, 1 mg/kg",250 nM
same,Cmax,"[7]; prostate, 1 mg/kg",150 nM
same,Cmax,"[7]; rectum, 1 mg/kg",105 nM
same,Cmax,"[7]; testes, 1 mg/kg",190 nM
same,MTD at 2 weeks,"[8]; rat, in vivo, sc, safe non-toxic dose for multiple dosing",0.5 mg/kg
same,"dose imposing some toxicity (hypotonia, reluctance to ambulate)",[8],above 0.5 mg/kg
same,"morphological findings, prostate glands",prostate tissue; RT+Mn4+Asc group (heading printed twice),"Local glands presented few large bizarre nuclei, some cells showed enlarged irregular nucleus and obvious nucleolus"
same,radioprotection of prostate tissue,prostate tissue,significant radioprotection of prostate tissue
same,radioprotection of prostate tissue,prostate tissue; listed as MnTF3Pen-2-PyP^5+,suppresses radiation (RT) damage to prostate tissue
same,bladder and rectum pathology,prostate tissue; with respect to control non-radiated tissues,no changes on bladder and rectum pathology
same,toxicity,wild strain E. coli,less toxic
same,brain levels lower than those of MnBuOE,[9],up to 50%
